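Five concentrations, 48 hours, 96-well plates. The concentration for 50% growth inhibition is given as GI50.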 Calls of active or inactive are those of the source. Rule as the data show it: active = GI50 up to about 1.1 µM and inactive = higher.
Tests used:
Test in all cases: DTP human tumour cell line panel, 48 h
A549 = test system: A549
CAKI-1 = test system: CAKI-1
EKVX = test system: EKVX
HOP-62 = test system: HOP-62
HOP-92 = test system: HOP-92
LOX IMVI = test system: LOX IMVI
M14 = test system: M14
MCF7 = test system: MCF7
NCI-H522 = test system: NCI-H522
NCI/ADR-RES = test system: NCI/ADR-RES
OVCAR-5 = test system: OVCAR-5
RPMI-8226 = test system: RPMI-8226
SK-MEL-5 = test system: SK-MEL-5
SNB-19 = test system: SNB-19
SNB-75 = test system: SNB-75
SW-620 = test system: SW-620
T47D = test system: T47D
TK-10 = test system: TK-10
UACC-257 = test system: UACC-257
CCRF-CEM = test system: CCRF-CEM

| SMILES | GI50 (A549) | GI50 (CAKI-1) | GI50 (EKVX) | GI50 (HOP-62) | GI50 (HOP-92) | GI50 (LOX IMVI) | GI50 (M14) | GI50 (MCF7) | GI50 (NCI-H522) | GI50 (NCI/ADR-RES) | GI50 (OVCAR-5) | GI50 (RPMI-8226) | GI50 (SK-MEL-5) | GI50 (SNB-19) | GI50 (SNB-75) | GI50 (SW-620) | GI50 (T47D) | GI50 (TK-10) | GI50 (UACC-257) | GI50 (CCRF-CEM) |
| --- | --- | --- | --- | --- | --- | --- | --- | --- | --- | --- | --- | --- | --- | --- | --- | --- | --- | --- | --- | --- |
| Nc1ncnc2c1ncn2CCCCC(=O)O | > 100 µM (inactive) | > 100 µM (inactive) | > 100 µM (inactive) | > 100 µM (inactive) | > 100 µM (inactive) | > 100 µM (inactive) | > 100 µM (inactive) | > 100 µM (inactive) | > 100 µM (inactive) | > 100 µM (inactive) | > 100 µM (inactive) | > 100 µM (inactive) | > 100 µM (inactive) | > 100 µM (inactive) | > 100 µM (inactive) | > 100 µM (inactive) | > 100 µM (inactive) | > 100 µM (inactive) | > 100 µM (inactive) | – |
| c1ccc2c[n+](CCCCCCCCCC[n+]3ccc4ccccc4c3)ccc2c1 | 0.585 µM (active) | > 10 µM (inactive) | 2.07 µM (inactive) | > 10 µM (inactive) | > 10 µM (inactive) | > 10 µM (inactive) | > 10 µM (inactive) | > 10 µM (inactive) | 4.17 µM (inactive) | > 10 µM (inactive) | > 5.09 µM (inactive) | > 10 µM (inactive) | 2.66 µM (inactive) | > 10 µM (inactive) | 3.68 µM (inactive) | > 10 µM (inactive) | > 10 µM (inactive) | > 10 µM (inactive) | 3.48 µM (inactive) | > 10 µM (inactive) |
| O=S(=O)(N=[Se](=O)(c1ccccc1)c1ccccc1)c1ccccc1 | – | > 100 µM (inactive) | > 100 µM (inactive) | > 100 µM (inactive) | > 100 µM (inactive) | > 100 µM (inactive) | > 100 µM (inactive) | 88.3 µM (inactive) | > 100 µM (inactive) | > 100 µM (inactive) | > 100 µM (inactive) | > 100 µM (inactive) | > 100 µM (inactive) | 60 µM (inactive) | > 100 µM (inactive) | > 100 µM (inactive) | > 100 µM (inactive) | > 100 µM (inactive) | – | > 100 µM (inactive) |
| Oc1nc2c(c(-c3ccc(Br)cc3)n1)COC/C2=C\c1ccc(Br)cc1 | – | > 50 µM (inactive) | > 50 µM (inactive) | > 50 µM (inactive) | > 50 µM (inactive) | > 50 µM (inactive) | > 50 µM (inactive) | 47.4 µM (inactive) | > 50 µM (inactive) | > 50 µM (inactive) | > 50 µM (inactive) | > 50 µM (inactive) | > 50 µM (inactive) | > 50 µM (inactive) | > 50 µM (inactive) | > 50 µM (inactive) | > 50 µM (inactive) | > 50 µM (inactive) | > 50 µM (inactive) | > 50 µM (inactive) |
| [N-]=[N+]=NI1OC(=O)c2ccccc21 | > 100 µM (inactive) | 23.8 µM (inactive) | > 100 µM (inactive) | > 100 µM (inactive) | 44.9 µM (inactive) | 90.2 µM (inactive) | > 100 µM (inactive) | 93.5 µM (inactive) | 17.3 µM (inactive) | > 100 µM (inactive) | 66.5 µM (inactive) | 24 µM (inactive) | – | > 100 µM (inactive) | > 100 µM (inactive) | 65.3 µM (inactive) | > 100 µM (inactive) | > 100 µM (inactive) | > 100 µM (inactive) | 37.9 µM (inactive) |
| Cc1c(C)c2c(c(N)c1C#N)C(=O)N(CCc1ccccc1)C2=O | 94.8 µM (inactive) | > 100 µM (inactive) | > 100 µM (inactive) | – | > 100 µM (inactive) | > 100 µM (inactive) | > 100 µM (inactive) | > 100 µM (inactive) | > 100 µM (inactive) | > 100 µM (inactive) | > 100 µM (inactive) | > 100 µM (inactive) | > 100 µM (inactive) | > 100 µM (inactive) | > 100 µM (inactive) | > 100 µM (inactive) | > 100 µM (inactive) | > 100 µM (inactive) | > 100 µM (inactive) | > 100 µM (inactive) |
| Nc1ccc(S(=O)(=O)Nc2nc3ccccc3nc2N2CCCCC2)cc1 | 48.1 µM (inactive) | > 100 µM (inactive) | > 100 µM (inactive) | > 100 µM (inactive) | 53 µM (inactive) | > 100 µM (inactive) | 91 µM (inactive) | 84.3 µM (inactive) | 31.1 µM (inactive) | 46.3 µM (inactive) | > 100 µM (inactive) | 58.9 µM (inactive) | 91 µM (inactive) | > 100 µM (inactive) | 24.3 µM (inactive) | 59 µM (inactive) | 41.6 µM (inactive) | 37.6 µM (inactive) | > 100 µM (inactive) | 48.5 µM (inactive) |

From ChEMBL document CHEMBL1201862, “PubChem BioAssay data set” (2004)
